Where “and” joins values, the source holds several entries; their conditions need not be identical. Equal entries are not always repeated.
System: 922993-354-T-J3-PDC complex spheroid viability
Assay: Anticancer human tumor 922993-354-T-J3-PDC patient-derived endometrial carcinoma cell line growth inhibition [POLQ]
Conditions: for viability, T/C: stronger effect = lower value; for IC50: curve of compound
Protocol: Multicellular complex tumor spheroid response to Polymerase (POL) inhibitors (novobiocin, ART-558, RP6685) in combination with a variety of drugs and investigational agents in selected tumor cell lines
The POL inhibitors (novobiocin, ART-558, and RP6685) were evaluated both individually and in combination with standard of care and investigational anticancer small molecules within a complex spheroid model of solid tumors. . Complex spheroids include a stromal component modeled by human endothelial cells (HUVEC) and fibroblasts modeled by human mesenchymal stem cells (MSCs). The concentration ranges selected for each drug and investigational agent were based upon clinically achievable concentrations if the clinical Cmax of the agent was known.
Compounds. The drugs and investigational agents: novobiocin (NSC847541), ART-558 (NSC835418), RP-6685 (NSC848927), peposertib (NSC802822), ceralasertib (NSC780249), elimusertib (NSC800525), camonsertib (NSC841442), AZD-1390 (NSC803789), olaparib (NSC753686), talazoparib (NSC767125), rucaparib (NSC756644), sotorasib (NSC818433), MRTX-1133 (NSC836407), SN-38 (NSC673596), topotecan (NSC609699), epotoside (NSC141540), doxorubicin (NSC123127), gemcitabine (NSC613327), 5-fluorouracil (NSC19893), paclitaxel (NSC125973), vemurafenib (NSC761431), MSA-2 (NSC828583), SN-011 (NSC837082), adavosertib (NSC754352), prexasertib (NSC758257), carboplatin (NSC241240) and oxaliplatin (NSC266046), were obtained from the National Cancer Institute (NCI) Developmental Therapeutics Program Chemical Repository (21). The FDA-approved anticancer drug set is available from the Developmental Therapeutics Program at https://dtp.cancer.gov/organization/dscb/obtaining/. […] The stock solutions were prepared in dimethyl sulfoxide (DMSO, Sigma-Aldrich, St. Louis, MO, cat. D2650), except for the platinum compounds which were prepared in saline (Quality Biological, Gaithersburg, MD, cat. 114-055-101), at 800-fold the tested concentration and stored at -70 degrees C prior to their use. All drugs and investigational agents were tested over a range starting from a high concentration at or near the clinical Cmax and decreasing in half-log increments. If the clinical Cmax for an agent had not been determined, the highest concentration tested was 10 microM, except for SN-38, which was tested at a high concentration of 1 microM.
Cell Culture. All cells were maintained in an incubator at 37 degrees C and 5% CO2 with 95% humidity. The PDC lines were cultured according to standard operating procedures established by the NCI PDMR (https://pdmr.cancer.gov). Table 3 of the manuscript, lists the cell lines along with the number of the three cell types plated to form the mct-spheroids and media for tumor cell growth. After thawing, all PDC lines, except 997537-175-T-J1-PDC and 415267-285-R-J2-PDC, were cultured in Matrigel-coated flasks prepared with a working solution of 1X Ham's F-12 nutrient mix, without supplementation (Thermo Fisher Scientific, cat. 11765054), 100 U/mL penicillin-streptomycin (Thermo Fisher Scientific, cat. 15140122), and 2.5% Matrigel (Corning Inc., Corning, NY, cat. 354248) for the first three passages. The two PDC lines 997537-175-T-J1-PDC and 415267-285-R-J2-PDC were cultured on uncoated flasks. The 857933-349-R-J2-PDC line was cultured in 6C/Colon 1B media containing advanced DMEM/F-12 (Thermo Fisher Scientific, cat. 12634028), 10 mM HEPES (Thermo Fisher Scientific, cat. 15630080), 1X GlutaMAX supplement (Thermo Fisher Scientific, cat. 35050061), 0.1 mg/mL primocin (InvivoGen, San Diego, CA, cat. ant-pm-2), 10% defined fetal bovine serum, heat inactivated (HyClone Laboratories Inc., Logan, UT, cat. SH30070.03HI), 50% L-WRN conditioned media (ATCC, cat. CRL-3276), 1.25 mM N-Acetyl-L-cysteine (Sigma-Aldrich, cat. A9165), 10 mM nicotinamide (Sigma-Aldrich, cat. N0636), 1X B-27 supplement (Thermo Fisher Scientific, cat. 17504044), 1X N-2 supplement (Thermo Fisher Scientific, cat. […]
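Further: spheroids exposed to the agents for one week.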
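Wherever viability, T/C is given: 100% = DMSO vehicle control wells.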

C#Cc1c(F)ccc2cc(O)cc(-c3ncc4c(N5CC6CCC(C5)N6)nc(OCC56CCCN5CC(F)C6)nc4c3F)c12 (stereo not drawn)
viability, T/C (compound 0.0316 µM): 108% and 107% and 101%
viability, T/C (compound 0.1 µM): 95.9% and 99.1% and 99.3%
viability, T/C (compound 0.316 µM): 97.7% and 108% and 93.2%
viability, T/C (compound 1 µM): 110% and 99.2% and 95%
viability, T/C (compound 3.16 µM): 96% and 102% and 92.8%
viability, T/C (compound 10 µM): 98.1% and 99.6% and 90.1%
IC50: > 10 µM

C=CC(=O)N1CCN(c2nc(=O)n(-c3c(C)ccnc3C(C)C)c3nc(-c4c(O)cccc4F)c(F)cc23)C(C)C1 (stereo not drawn)
viability, T/C (compound 0.0316 µM): 107% and 106% and 97.9%
viability, T/C (compound 0.1 µM): 93.5% and 101% and 94.9%
viability, T/C (compound 0.316 µM): 96% and 106% and 92.7%
viability, T/C (compound 1 µM): 104% (2×) and 107%
viability, T/C (compound 3.16 µM): 105% and 104% and 97.4%
viability, T/C (compound 10 µM): 98.8% and 106% and 75%
IC50: > 10 µM

C=CCn1c(=O)c2cnc(Nc3ccc(N4CCN(C)CC4)cc3)nc2n1-c1cccc(C(C)(C)O)n1
viability, T/C (compound 0.00316 µM): 99% and 101% and 104%
viability, T/C (compound 0.01 µM): 102% and 97.2% and 98.6%
viability, T/C (compound 0.0316 µM): 88.2% and 102% and 105%
viability, T/C (compound 0.1 µM): 98.6% and 105% and 101%
viability, T/C (compound 0.316 µM): 106% and 104% and 103%
viability, T/C (compound 1 µM): 86.5% and 104% and 96%
IC50: > 1 µM

CC(=O)O[C@H]1C(=O)[C@@]2(C)[C@H]([C@H](OC(=O)c3ccccc3)[C@]3(O)C[C@H](OC(=O)[C@H](O)[C@@H](NC(=O)c4ccccc4)c4ccccc4)C(C)=C1C3(C)C)[C@]1(OC(C)=O)CO[C@@H]1C[C@@H]2O
viability, T/C (compound 0.00949 µM): 105% and 103% and 101%
viability, T/C (compound 0.03 µM): 99% and 101% and 96.3%
viability, T/C (compound 0.0949 µM): 99.6% and 106% and 95.9%
viability, T/C (compound 0.3 µM): 105% (2×) and 108%
viability, T/C (compound 0.949 µM): 101% and 95.8% and 89.9%
viability, T/C (compound 3 µM): 74.1% and 74.5% and 52%
IC50: > 3 µM

CC(C)n1c(=O)n(C)c2cnc3cc(F)c(-c4ccc(OCCCN5CCCCC5)nc4)cc3c21
viability, T/C (compound 0.0316 µM): 109% and 101% and 100%
viability, T/C (compound 0.1 µM): 103% and 94.2% and 94%
viability, T/C (compound 0.316 µM): 107% and 99.9% and 97.4%
viability, T/C (compound 1 µM): 99.4% and 95.3% and 105%
viability, T/C (compound 3.16 µM): 90% and 92.7% and 83.1%
viability, T/C (compound 10 µM): 63.3% and 83% and 68%
IC50: > 10 µM

CC1COCCN1c1cc(-c2ccnn2C)c2ccnc(-c3ccn[nH]3)c2n1 (stereo not drawn)
viability, T/C (compound 0.0316 µM): 102% and 89.6% and 107%
viability, T/C (compound 0.1 µM): 66.9% and 60.1% and 93.3%
viability, T/C (compound 0.316 µM): 23.1% and 29.1% and 69.8%
viability, T/C (compound 1 µM): 11.8% and 12.8% and 36.8%
viability, T/C (compound 3.16 µM): 9.13% and 7.87% and 19.7%
viability, T/C (compound 10 µM): 10.8% and 9.87% and 13.7%
IC50: 0.156 µM and 0.146 µM and 0.63 µM

CC1COCCN1c1cc(C2(O)CC3CCC(C2)O3)c2cnn(-c3ccn[nH]3)c2n1 (stereo not drawn)
viability, T/C (compound 0.0316 µM): 91% and 98.1% and 100%
viability, T/C (compound 0.1 µM): 90.2% and 88.6% and 96.7%
viability, T/C (compound 0.316 µM): 54.3% and 58.2% and 96.7%
viability, T/C (compound 1 µM): 25.7% and 28.6% and 63.1%
viability, T/C (compound 3.16 µM): 9.69% and 10.5% and 42.5%
viability, T/C (compound 10 µM): 10.9% and 8.97% and 19.9%
IC50: 0.399 µM and 0.441 µM and 2.04 µM

CC1COCCN1c1cc(C2(S(C)(=N)=O)CC2)nc(-c2ccnc3[nH]ccc23)n1 (stereo not drawn)
viability, T/C (compound 0.0316 µM): 98.8% and 101% and 94%
viability, T/C (compound 0.1 µM): 94.9% and 100% and 90.1%
viability, T/C (compound 0.316 µM): 91.1% and 101% (2×)
viability, T/C (compound 1 µM): 97% and 102% and 99.8%
viability, T/C (compound 3.16 µM): 93.2% and 104% and 78.1%
viability, T/C (compound 10 µM): 46.8% and 92.4% and 45%
IC50: 9.23 µM and > 10 µM and 8.4 µM

CCCS(=O)(=O)Nc1ccc(F)c(C(=O)c2c[nH]c3ncc(-c4ccc(Cl)cc4)cc23)c1F
viability, T/C (compound 0.0316 µM): 101% and 107% and 102%
viability, T/C (compound 0.1 µM): 102% and 103% and 98.4%
viability, T/C (compound 0.316 µM): 105% and 106% and 94.1%
viability, T/C (compound 1 µM): 104% and 107% and 109%
viability, T/C (compound 3.16 µM): 97.1% and 103% and 105%
viability, T/C (compound 10 µM): 98.9% and 92.4% and 69.4%
IC50: > 10 µM

CC[C@@]1(O)C(=O)OCc2c1cc1n(c2=O)Cc2cc3c(CN(C)C)c(O)ccc3nc2-1
viability, T/C (compound 0.000316 µM): 92.2% and 105% and 98.3%
viability, T/C (compound 0.001 µM): 103% and 105% and 84%
viability, T/C (compound 0.00316 µM): 101% and 97.8% and 99.3%
viability, T/C (compound 0.01 µM): 98.3% and 98.7% and 106%
viability, T/C (compound 0.0316 µM): 86.9% and 98% and 91.8%
viability, T/C (compound 0.1 µM): 54.7% and 87.9% and 41.4%
IC50: > 0.1 µM and 0.0827 µM

CCc1c2c(nc3ccc(O)cc13)-c1cc3c(c(=O)n1C2)COC(=O)[C@]3(O)CC
viability, T/C (compound 0.00316 µM): 78.9% and 100% and 95.3%
viability, T/C (compound 0.01 µM): 51.6% and 79.5% and 29.8%
viability, T/C (compound 0.0316 µM): 13% and 39.8% and 14.1%
viability, T/C (compound 0.1 µM): 12.4% and 20.3% and 11.5%
viability, T/C (compound 0.316 µM): 15.2% and 19.6% and 12.8%
viability, T/C (compound 1 µM): 16.6% and 28.6% and 14.5%
IC50: 0.0105 µM and 0.023 µM and 0.00703 µM

CCc1cc2c(N3CCc4c(cc(Cn5ccnc5)cc4-c4cn(C)nc4C(F)(F)F)C3=O)cc(C)nc2c(OC)n1
viability, T/C (compound 0.0316 µM): 93.1% and 105% and 99.3%
viability, T/C (compound 0.1 µM): 106% and 104% and 101%
viability, T/C (compound 0.316 µM): 98% and 103% and 106%
viability, T/C (compound 1 µM): 108% and 107% and 106%
viability, T/C (compound 3.16 µM): 99.3% and 102% and 104%
viability, T/C (compound 10 µM): 71.7% and 94.3% and 102%
IC50: > 10 µM

CCc1cc2c(N3CCc4c(cc(Cn5ccnc5)cc4-c4cn(C)nc4C(F)(F)F)C3=O)ccnc2c(OC)n1
viability, T/C (compound 0.0316 µM): 109% and 106% and 102%
viability, T/C (compound 0.1 µM): 94.3% and 98% and 103%
viability, T/C (compound 0.316 µM): 87.5% and 105% and 107%
viability, T/C (compound 1 µM): 107%
viability, T/C (compound 3.16 µM): 91.8% and 108% and 103%
viability, T/C (compound 10 µM): 80.9% and 97.6% and 101%
IC50: > 10 µM

CNCc1ccc(-c2[nH]c3cc(F)cc4c3c2CCNC4=O)cc1
viability, T/C (compound 0.0316 µM): 94.6% and 105% and 109%
viability, T/C (compound 0.1 µM): 96.8% and 100% and 90.3%
viability, T/C (compound 0.316 µM): 93.7% and 96% and 96.1%
viability, T/C (compound 1 µM): 105% and 97.1% and 96%
viability, T/C (compound 3.16 µM): 85.2% and 99.3% and 90.9%
viability, T/C (compound 10 µM): 86.2% and 96.2% and 71.4%
IC50: > 10 µM

Reference: PubChem BioAssay AID1963830 (Molecular Pharmacology Branch, DTP, NCI, 2024)
